Source: ChEMBL document CHEMBL4152261, “Positional scanning library applied to the human eosinophil cationic protein/RNase3 N-terminus reveals novel and potent anti-biofilm peptides” (Eur J Med Chem, 2018)
pEC50, pIC50: −log10 of the molar value. Blank lines part the entries; values can stand above or below the compound they belong to.

What was measured:
MRC5 = experiment: Cytotoxicity against human MRC5 cells after 4 hrs by MTT assay; type: cell-based; details: MRC5, 4 h
Pseudomonas aeruginosa [1] = experiment: Induction of Pseudomonas aeruginosa PAO1 agglutination after 1 hr by binocular stereo microscopic method; type: functional
[2] = Hemolytic activity in sheep RBC at 10 uM after 4 hrs relative to control; type: ADME, cell-based, Ovis aries, Erythrocyte; details: sheep red blood cells (erythrocytes), read-out: Activity
Lipopolysaccharide (LPS) [3] = experiment: Displacement of BODIPY TR cadaverine from Pseudomonas aeruginosa LPS by fluorescence assay
HepG2 = experiment: Cytotoxicity against human HepG2 cells after 4 hrs by MTT assay; type: cell-based; details: HepG2, 4 h
Pseudomonas aeruginosa [4] = experiment: Bactericidal activity against Pseudomonas aeruginosa PAO1 planktonic cells at 1 uM after 4 hrs by BacTiter-Glo assay relative to control; type: functional
[5] = Selectivity index, ratio of HC50 for sheep RBC to ED50 for induction of biofilm eradication of Pseudomonas aeruginosa PAO1; type: toxicity; details: sheep red blood cells (erythrocytes)
Pseudomonas aeruginosa [6] = experiment: Induction of biofilm eradication of Pseudomonas aeruginosa PAO1 after 4 hrs by BacTiter-Glo assay; type: functional; details: PAO1, 4 h, read-out: ED50 (the source's name)
[7] = Selectivity index, ratio of IC50 for human MRC5 cells to ED50 for induction of biofilm eradication of Pseudomonas aeruginosa PAO1; type: toxicity
[8] = Hemolytic activity in sheep RBC after 4 hrs; type: ADME, cell-based, Ovis aries, Erythrocyte; details: sheep red blood cells (erythrocytes)
Lipopolysaccharide (LPS) [9] = experiment: Displacement of BODIPY TR cadaverine from Pseudomonas aeruginosa LPS at 1 uM by fluorescence assay relative to control
Pseudomonas aeruginosa [10] = experiment: Bactericidal activity against Pseudomonas aeruginosa PAO1 planktonic cells after 4 hrs by BacTiter-Glo assay; type: functional; details: PAO1, 4 h, read-out: ED50 (the source's name)

ED50 (Lipopolysaccharide (LPS) [3]): 2.85 µM | inhibition (Lipopolysaccharide (LPS) [9]): 40%
Compound: CC[C@H](C)[C@H](NC(=O)[C@H](C)NC(=O)[C@H](CCCNC(=N)N)NC(=O)[C@H](CCSC)NC(=O)[C@H](C)NC(=O)[C@@H](NC(=O)[C@@H](NC(=O)[C@H](CCCNC(=N)N)NC(=O)[C@@H]1CCCN1C(=O)[C@H](CO)NC(=O)[C@@H](NC(=O)[C@H](Cc1cnc[nH]1)NC(=O)[C@H](CCC(N)=O)NC(=O)[C@@H](NC(=O)[C@H](C)NC(=O)[C@H](Cc1ccccc1)NC(=O)[C@H](Cc1c[nH]c2ccccc12)NC(=O)[C@H](CCC(N)=O)NC(=O)[C@H](C)NC(=O)[C@H](CCCNC(=N)N)NC(=O)[C@@H](NC(=O)[C@H](Cc1ccccc1)NC(=O)[C@@H]1CCCN1C(=O)[C@@H](N)CCCNC(=N)N)[C@@H](C)O)[C@@H](C)CC)[C@@H](C)CC)[C@H](C)O)[C@@H](C)CC)C(=O)N[C@@H](CC(N)=O)C(=O)N[C@@H](CC(N)=O)C(=O)N[C@@H](Cc1ccc(O)cc1)C(=O)N[C@@H](CCCNC(=N)N)C(=O)N[C@@H](Cc1c[nH]c2ccccc12)C(=O)N[C@@H](CCCNC(=N)N)C(=O)O
pIC50 (MRC5): < 3.82 | MAC (Pseudomonas aeruginosa [1]): 1 µM | hemolysis at 4 h, 10 µM [2]: 10% | pIC50 (HepG2): 4.13 | Activity (Pseudomonas aeruginosa [4]): 50% | selectivity ratio [5]: 16 to 60 | pEC50 (Pseudomonas aeruginosa [6]): 5.18 | selectivity ratio [7]: 16 to 60 | HC50 at 4 h [8]: > 150 µM | pEC50 (Pseudomonas aeruginosa [10]): 5.87

ED50 (Lipopolysaccharide (LPS) [3]): 3.42 µM
Compound: H-RPFIRAQWFAIQHISPRTIAMRAINNYRWR-OH
pIC50 (MRC5): < 3.82 | MAC (Pseudomonas aeruginosa [1]): 0.25 µM | pIC50 (HepG2): 4.02 | selectivity ratio [5]: 16 to 60 | pEC50 (Pseudomonas aeruginosa [6]): 5.63 | selectivity ratio [7]: 16 to 60 | HC50 at 4 h [8]: > 150 µM | pEC50 (Pseudomonas aeruginosa [10]): 6.26

ED50 (Lipopolysaccharide (LPS) [3]): 3.07 µM
Compound: H-RPFTRAQIFAIQHISPRTIAMRAINNYRWR-OH
pIC50 (MRC5): < 3.82 | MAC (Pseudomonas aeruginosa [1]): 0.125 µM | pIC50 (HepG2): 3.77 | selectivity ratio [5]: 16 to 60 | pEC50 (Pseudomonas aeruginosa [6]): 5.36 | selectivity ratio [7]: 16 to 60 | HC50 at 4 h [8]: > 150 µM | pEC50 (Pseudomonas aeruginosa [10]): 6.60

ED50 (Lipopolysaccharide (LPS) [3]): 1.66 µM
Compound: CC[C@H](C)[C@H](NC(=O)[C@H](C)NC(=O)[C@H](CCCNC(=N)N)NC(=O)[C@H](CCSC)NC(=O)[C@H](C)NC(=O)[C@@H](NC(=O)[C@@H](NC(=O)[C@H](CCCNC(=N)N)NC(=O)[C@@H]1CCCN1C(=O)[C@H](CO)NC(=O)[C@@H](NC(=O)[C@H](Cc1cnc[nH]1)NC(=O)[C@@H](NC(=O)[C@@H](NC(=O)[C@H](C)NC(=O)[C@H](Cc1ccccc1)NC(=O)[C@H](Cc1c[nH]c2ccccc12)NC(=O)[C@H](CCC(N)=O)NC(=O)[C@H](C)NC(=O)[C@H](CCCNC(=N)N)NC(=O)[C@@H](NC(=O)[C@H](Cc1ccccc1)NC(=O)[C@@H]1CCCN1C(=O)[C@@H](N)CCCNC(=N)N)[C@H](C)O)[C@@H](C)CC)[C@@H](C)CC)[C@@H](C)CC)[C@@H](C)O)[C@@H](C)CC)C(=O)N[C@@H](CC(N)=O)C(=O)N[C@@H](CC(N)=O)C(=O)N[C@@H](Cc1ccc(O)cc1)C(=O)N[C@@H](CCCNC(=N)N)C(=O)N[C@@H](Cc1c[nH]c2ccccc12)C(=O)N[C@@H](CCCNC(=N)N)C(=O)O
pIC50 (MRC5): < 4.00 | MAC (Pseudomonas aeruginosa [1]): 0.25 µM | pIC50 (HepG2): 4.22 | selectivity ratio [5]: 16 to 60 | pEC50 (Pseudomonas aeruginosa [6]): 5.50 | selectivity ratio [7]: 16 to 60 | HC50 at 4 h [8]: > 100 µM | pEC50 (Pseudomonas aeruginosa [10]): 6.36
